SMILES strings stand for the structures. Marks after values point to notes of the source that are not given here.

This is an account of results in publication PMC9184688, “α-Glucosidase inhibitive diarylheptanoids from Ottelia acuminata var. acuminata, a traditional vegetable of Bai Nationality in Yunnan” (Natural Products and Bioprospecting, 2022).

In one test the target is T1, PTP1B (Homo sapiens, UniProt P18031).
T1 construct: purchased Sigma Chemical (Merck KGaA, Darmstadt, Germany)
T1 sequence (P18031 1-322 limits assumed): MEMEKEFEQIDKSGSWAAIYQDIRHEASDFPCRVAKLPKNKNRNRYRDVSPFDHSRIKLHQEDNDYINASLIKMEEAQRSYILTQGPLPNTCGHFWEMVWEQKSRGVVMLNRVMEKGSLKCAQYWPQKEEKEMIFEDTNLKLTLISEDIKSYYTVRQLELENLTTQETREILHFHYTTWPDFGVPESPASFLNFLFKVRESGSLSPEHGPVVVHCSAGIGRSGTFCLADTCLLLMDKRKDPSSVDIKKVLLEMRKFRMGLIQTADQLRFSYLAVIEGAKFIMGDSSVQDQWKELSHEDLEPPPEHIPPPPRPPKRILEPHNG
Nature of the test: PTP1B inhibitory assay (phosphate-based detection reagent, absorbance at 620 nm). As to conditions: means ± SD (n = 3). The class given is biochemical. As to the method: IR spectra were measured on a Bruker FT-IR Tensor-27 infrared spectrophotometer with KBr disks. Optical rotations were recorded on a JASCO P-1020 polarimeter. UV spectra were obtained with a Shimadzu UV-2401PC spectrometer. 1D and 2D NMR spectra were performed on a Bruker DRX-600 spectrometer using TMS as an internal standard. The chemical shifts (δ) were expressed in ppm with reference to the solvent signals. HREIMS and HRESIMS analysis were obtained from Waters Xevo TQS and Agilent G6230 TOF mass spectrometers, respectively. […] Semi-preparative HPLC was performed on a Waters 1525 HPLC with a ZORBAX SB-C18 (9.4 × 250 mm) column. Silica gel (100–200 and 200–300 mesh, Qingdao Marine Chemical Co., Ltd., People’s Republic of China), and MCI gel (75–150 μm, Mitsubishi Chemical Corporation, Tokyo, Japan) were used for column chromatography. Fractions were monitored by TLC (GF 254, Qingdao Marine Chemical Co., Ltd.), and spots were visualized by heating silica gel plates immersed in 10% H2SO4 in ethanol. Methanol (HPLC grade) and acetonitrile (HPLC grade) was purchased from CINC High Purity Solvents Co., Ltd (Shanghai, China).
The α-glucosidase and PTB1B inhibitory activity were conducted according to the previous reports with slight modifications. […] While in the PTB1B inhibitory assay, after addition of phosphate-based detection reagent then incubation at 30 °C for 20 min, and absorbance was measured at 620 nm and suramin was used as positive control. The inhibition percentage was calculated as follows: inhibition rate (%) = (E – S)/E × 100% (E is the OD of the control and S is the OD of the sample) and IC50 (50% concentration of inhibition) was calculated by Reed and Muench method.

In a further test the target is α-glucosidase (Saccharomyces cerevisiae, UniProt P53341). Kind of test: α-glucosidase inhibitory assay (PNPG, absorbance at 405 nm). The test is classed as biochemical. To be noted: at a concentration of 50 μM; means ± SD (n = 3); read-out: α-Glucosidase Inhibition ratio (%).
[1] abbreviates: test concentration of the compounds not given.

Chain of α-glucosidase (P53341 whole entry): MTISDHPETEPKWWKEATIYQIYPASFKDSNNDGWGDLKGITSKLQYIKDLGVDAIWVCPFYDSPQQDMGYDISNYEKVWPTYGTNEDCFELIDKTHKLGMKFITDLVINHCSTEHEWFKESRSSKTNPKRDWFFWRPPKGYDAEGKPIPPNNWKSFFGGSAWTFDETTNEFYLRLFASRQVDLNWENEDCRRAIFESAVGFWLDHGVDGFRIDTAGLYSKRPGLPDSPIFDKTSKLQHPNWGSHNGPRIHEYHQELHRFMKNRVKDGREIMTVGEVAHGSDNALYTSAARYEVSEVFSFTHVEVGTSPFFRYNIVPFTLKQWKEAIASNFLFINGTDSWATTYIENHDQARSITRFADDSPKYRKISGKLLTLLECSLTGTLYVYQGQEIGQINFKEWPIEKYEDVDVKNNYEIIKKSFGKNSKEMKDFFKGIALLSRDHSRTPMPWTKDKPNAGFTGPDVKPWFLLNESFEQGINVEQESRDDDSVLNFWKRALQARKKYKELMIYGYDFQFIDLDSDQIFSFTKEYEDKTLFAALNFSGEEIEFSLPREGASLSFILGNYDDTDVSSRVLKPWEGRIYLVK
Protocol for α-glucosidase: The α-glucosidase and PTB1B inhibitory activity were conducted according to the previous reports with slight modifications [49, 50]. […] The inhibition percentage was calculated as follows: inhibition rate (%) = (E – S)/E × 100% (E is the OD of the control and S is the OD of the sample) and IC50 (50% concentration of inhibition) was calculated by Reed and Muench method.

Take `Cc1ccc(C(=O)Nc2ccc(S(=O)(=O)O)c3cc(S(=O)(=O)O)cc(S(=O)(=O)O)c23)cc1NC(=O)c1cccc(NC(=O)Nc2cccc(C(=O)Nc3cc(C(=O)Nc4ccc(S(=O)(=O)O)c5cc(S(=O)(=O)O)cc(S(=O)(=O)O)c45)ccc3C)c2)c1` [Suramin, suramin, reference compound]: at PTP1B (at a concentration of 20 μM, positive control), the “PTP1B inhibition ratio (%)” value is 84.11 ± 0.42^d %.

In the case of `Oc1ccc(C/C=C/C=C\CCc2ccc(O)cc2)cc1` [Compound 5, Otteacumiene E], the “PTP1B inhibition ratio (%)” value at PTP1B (setting [1]) was -0.28 ± 1.89%.

For `O=C1C/C=C/CCc2ccc(O)c(c2)-c2cc(ccc2O)C1` [Compound 4, Otteacumiene D], the “PTP1B inhibition ratio (%)” value on PTP1B (setting [1]) came to 10.37 ± 2.17%.

Consider `COc1ccc(/C=C/C/C=C/CCc2ccc(OC)cc2)cc1` [Compound 7, (1E,4E)-1,7-di(4-methoxyphenyl)-1,4-heptadiene], for which, on PTP1B (setting [1]), the “PTP1B inhibition ratio (%)” value is reported as -26.62 ± 2.28%.

For `Oc1ccc2cc1Oc1ccc(cc1)CC=CC=CC(O)C2` (centres unmarked) [Compound 1, Otteacumiene A], on PTP1B (setting [1]), the “PTP1B inhibition ratio (%)” value was -9.47 ± 2.28%. Also, the inhibition at 50 µM on α-glucosidase was found to be 38.3 ± 1.79%.

With `Oc1ccc2cc1Oc1ccc(cc1)C[C@H](O)/C=C\C=C\C2` [Compound 2, Otteacumiene B], the “PTP1B inhibition ratio (%)” value on PTP1B (setting [1]) amounted to 11.32 ± 2.03%. Besides, the inhibition at 50 µM at α-glucosidase was determined as 43.98 ± 0.43%.

Regarding `COC1c2ccc(O)c(c2)Oc2ccc(cc2)CCC=CCC1O` (centres unmarked) [Compound 3, Otteacumiene C], the “PTP1B inhibition ratio (%)” value at PTP1B (setting [1]) was determined as 19.07 ± 0.85%.

Turning to `COc1ccc(CC/C=C\C=C\Cc2ccc(O)cc2)cc1` [Compound 6, Otteacumiene F], the “PTP1B inhibition ratio (%)” value at PTP1B (setting [1]) is -12.94 ± 2.98%.

As for `Oc1ccc2cc1Oc1ccc(cc1)CC/C=C\C=C\C2` [Compound 8, tedarenes A], at PTP1B (setting [1]), the “PTP1B inhibition ratio (%)” value was -3.47 ± 1.21%.
